Earlier results in patent US20100135984A1, “Anti-inflammatory compositions and methods” (Searete LLC, a limited liability corporation of the State …, priority 2008, published 2010).

Columns and labels:
Fyn = Fyn (Homo sapiens, UniProt P06241); conditions: at nanomolar concentrations
[1] = mice
proteasome = conditions: cultured breast cancer cells; copper-bound
[2] = single agent, infused at 400 mg over one hour

Fyn, sequence (P06241 whole entry, species assumed): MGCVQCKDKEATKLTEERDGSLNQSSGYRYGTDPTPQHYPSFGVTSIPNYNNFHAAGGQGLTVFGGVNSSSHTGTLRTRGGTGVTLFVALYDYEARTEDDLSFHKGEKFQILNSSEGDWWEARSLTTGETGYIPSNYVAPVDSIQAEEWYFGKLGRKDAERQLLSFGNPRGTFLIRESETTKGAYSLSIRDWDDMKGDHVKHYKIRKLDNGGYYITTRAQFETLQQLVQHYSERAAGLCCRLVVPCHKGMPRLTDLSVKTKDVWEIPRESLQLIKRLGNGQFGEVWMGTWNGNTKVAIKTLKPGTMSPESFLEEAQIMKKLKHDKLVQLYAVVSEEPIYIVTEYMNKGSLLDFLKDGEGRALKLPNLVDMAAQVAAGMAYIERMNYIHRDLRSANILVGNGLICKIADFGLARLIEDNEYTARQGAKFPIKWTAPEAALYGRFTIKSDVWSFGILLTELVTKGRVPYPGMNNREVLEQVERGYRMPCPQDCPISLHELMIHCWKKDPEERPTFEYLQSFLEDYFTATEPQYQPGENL

Structure (SMILES): Cc1nc(Nc2ncc(C(=O)Nc3c(C)cccc3Cl)s2)cc(N2CCN(CCO)CC2)n1.O [dasatinib, N-(2-chloro-6-methylphenyl)-2-[[6-[4-(2-hydroxyethyl)-1-piperazinyl]-2-methyl-4-pyrimidinyl]amino]-5-thiazolecarboxamide, monohydrate]
- inhibition of Fyn (Fyn): inhibits

Structure (SMILES): Cl.Cl.Nc1ccccc1Oc1ccc2c(N)nsc2c1 [Example M62812, 3-amino-6-(2-aminophenoxy)-1,2-benzisothiazole dihydrochloride]
- prevention of lethal septic shock [1]: prevents lethal septic shock

Structure (SMILES): CCN(CC)CCCC(C)Nc1ccnc2cc(Cl)ccc12 (stereo not drawn) [Chloroquine]
- inhibition of CpG-induced Src family kinase activation or its dependent cellular responses (Src family kinase): does not inhibit

Structure (SMILES): CCN(CC)C(=S)SSC(=S)N(CC)CC [disulfiram, 1-(diethylthiocarbamoyldisulfanyl)-N,N-diethyl-methanethioamide]
- proteasomal activity (proteasome): inhibits proteasomal activity
- inhibition of aldehyde dehydrogenase (aldehyde dehydrogenase): inhibits aldehyde dehydrogenase without toxicity

Structure (SMILES): CCN(CC)CCCC(C)Nc1ccnc2cc(Cl)ccc12.O=P(O)(O)O.O=P(O)(O)O (stereo not drawn) [chloroquine phosphate, 7-chloro-4-[[4-(diethylamino)-1-methylbutyl]amino]quinoline phosphate (1:2)]
- tolerability of infusion [2]: without complication
